Assay results from ChEMBL document CHEMBL1201862, “PubChem BioAssay data set” (2004).
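Briefly, cells in 96-well plates were exposed to five compound concentrations for 48 h, and endpoints were estimated by linear interpolation. Here, GI50 denotes the concentration required for 50% inhibition of growth.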 Active and inactive are the calls of the source. No stated cut-off is given here; in the data, active = GI50 up to about 1.1 µM and inactive = higher.

How the values were obtained:
Test in all cases: growth of human tumour cells (NCI), 48 h
OVCAR-8 = test system: OVCAR-8
K562 = test system: K562
UACC-257 = test system: UACC-257
HT-29 = test system: HT-29
SF-295 = test system: SF-295
U-251 = test system: U-251
UACC-62 = test system: UACC-62
HCT-15 = test system: HCT-15
MDA-MB-231 = test system: MDA-MB-231
SN12C = test system: SN12C
SK-OV-3 = test system: SK-OV-3
IGROV-1 = test system: IGROV-1
NCI/ADR-RES = test system: NCI/ADR-RES
HOP-62 = test system: HOP-62
SK-MEL-5 = test system: SK-MEL-5
RPMI-8226 = test system: RPMI-8226
BT-549 = test system: BT-549
Malme-3M = test system: Malme-3M
SR = test system: SR
A498 = test system: A498

Structure (SMILES)	GI50 (OVCAR-8)	GI50 (K562)	GI50 (UACC-257)	GI50 (HT-29)	GI50 (SF-295)	GI50 (U-251)	GI50 (UACC-62)	GI50 (HCT-15) [µM]	GI50 (MDA-MB-231)	GI50 (SN12C)	GI50 (SK-OV-3)	GI50 (IGROV-1)	GI50 (NCI/ADR-RES)	GI50 (HOP-62)	GI50 (SK-MEL-5)	GI50 (RPMI-8226)	GI50 (BT-549)	GI50 (Malme-3M)	GI50 (SR)	GI50 (A498)
N#CCN(CC#N)C1CC=CCC1N(CC#N)CC#N (configuration not stated)	> 100 µM (inactive)	> 100 µM (inactive)	> 100 µM (inactive)	> 100 µM (inactive)	> 100 µM (inactive)	> 100 µM (inactive)	> 100 µM (inactive)	> 100	> 100 µM (inactive)	> 100 µM (inactive)	> 100 µM (inactive)	> 100 µM (inactive)	> 100 µM (inactive)	> 100 µM (inactive)	> 100 µM (inactive)	> 100 µM (inactive)	> 100 µM (inactive)	> 100 µM (inactive)		
CCSc1c(C)c2c(n(Cc3ccc(OC)cc3)c1=O)Cc1ccccc1C2	14.9 µM (inactive)	16.5 µM (inactive)	13.3 µM (inactive)	28.2 µM (inactive)	32.1 µM (inactive)	15 µM (inactive)	22.9 µM (inactive)	4.52	20.7 µM (inactive)	12.8 µM (inactive)	39.5 µM (inactive)	19 µM (inactive)	5.08 µM (inactive)	23.1 µM (inactive)	15.4 µM (inactive)		22.9 µM (inactive)	10.8 µM (inactive)	3.61 µM (inactive)	
COC(=NCCC1=CCCCC1)OC	75.7 µM (inactive)	36 µM (inactive)	39.3 µM (inactive)	18.2 µM (inactive)	> 100 µM (inactive)	71.3 µM (inactive)	> 100 µM (inactive)	82	> 100 µM (inactive)		> 100 µM (inactive)	32.8 µM (inactive)	58.9 µM (inactive)	> 100 µM (inactive)	34.4 µM (inactive)	32.1 µM (inactive)	> 100 µM (inactive)	31.2 µM (inactive)		> 100 µM (inactive)
CN(C)c1ccc(/C=C2\N=C(N/N=C/c3ccc(N(C)C)cc3)NC2=O)cc1	24.8 µM (inactive)		> 100 µM (inactive)	42.7 µM (inactive)	58.2 µM (inactive)	52.1 µM (inactive)	> 100 µM (inactive)	30.8	31.4 µM (inactive)	> 100 µM (inactive)	> 100 µM (inactive)	38.7 µM (inactive)	> 100 µM (inactive)	> 100 µM (inactive)	44.4 µM (inactive)	76.6 µM (inactive)	> 100 µM (inactive)	> 100 µM (inactive)		26.8 µM (inactive)
CC(=O)N1C(NN(C)C)CCN1c1ccccc1 (configuration not stated)	> 10 µM (inactive)	> 10 µM (inactive)	> 10 µM (inactive)	> 10 µM (inactive)	> 10 µM (inactive)		> 10 µM (inactive)	> 10	> 10 µM (inactive)	> 10 µM (inactive)	> 10 µM (inactive)	> 10 µM (inactive)		> 10 µM (inactive)	> 10 µM (inactive)	> 10 µM (inactive)		> 10 µM (inactive)	> 10 µM (inactive)	
Cc1ccc(-c2c(C#N)c(-c3ccc([N+](=O)[O-])cc3)c(C#N)c(=O)n2NS(=O)(=O)c2ccc(C)cc2)cc1	49.1 µM (inactive)	46.2 µM (inactive)	> 100 µM (inactive)	56.4 µM (inactive)	40.9 µM (inactive)	44.8 µM (inactive)	31 µM (inactive)	41.6	61.9 µM (inactive)	50 µM (inactive)	36.6 µM (inactive)	24.7 µM (inactive)	38.1 µM (inactive)	67.1 µM (inactive)	19.8 µM (inactive)	18.9 µM (inactive)	16.5 µM (inactive)	96.4 µM (inactive)		67.8 µM (inactive)
C[C@H]1O[C@@H](c2c(O)ccc3ccccc23)C[C@@H](N(C)C)C1O (some centres not stated)	> 100 µM (inactive)	> 100 µM (inactive)	26.5 µM (inactive)	54.6 µM (inactive)	> 100 µM (inactive)	> 100 µM (inactive)	81.3 µM (inactive)	> 100	> 100 µM (inactive)	> 100 µM (inactive)	> 100 µM (inactive)	73.6 µM (inactive)	> 100 µM (inactive)	> 100 µM (inactive)	40.4 µM (inactive)		> 100 µM (inactive)	48 µM (inactive)		51.9 µM (inactive)
Cc1ccc2c(O)cc(-c3sc4ccccc4c3C)nc2n1	25.2 µM (inactive)	27.1 µM (inactive)	32.3 µM (inactive)	25.9 µM (inactive)	17.1 µM (inactive)		16.9 µM (inactive)	17.7	49.5 µM (inactive)	29 µM (inactive)	21.7 µM (inactive)	19.8 µM (inactive)	17.1 µM (inactive)	25.1 µM (inactive)		14.5 µM (inactive)	16.9 µM (inactive)	16.7 µM (inactive)		22.4 µM (inactive)
